Measured values taken from ChEMBL document CHEMBL1201862, “PubChem BioAssay data set” (2004).
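Step 1: Grow cells in 96-well plates. Step 2: Expose to compound for 48 hours at 5 concentrations. Step 3: Interpolate endpoints linearly; if unreached, use highest concentration. At the GI50, growth is halved.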 Calls of active or inactive are those of the source. Cut-off read from the data, not from the text of the source: active = GI50 up to about 1.1 µM and inactive = higher.

Experiments:
Test in all cases: NCI tumour cell line growth inhibition, 48 h
T47D = system: T47D
HT-29 = system: HT-29
OVCAR-4 = system: OVCAR-4
M14 = system: M14
HOP-62 = system: HOP-62
SK-MEL-2 = system: SK-MEL-2
UACC-257 = system: UACC-257
IGROV-1 = system: IGROV-1
SK-MEL-28 = system: SK-MEL-28
OVCAR-5 = system: OVCAR-5
EKVX = system: EKVX
UO-31 = system: UO-31
SF-539 = system: SF-539
SR = system: SR
SN12C = system: SN12C
SNB-19 = system: SNB-19
MOLT-4 = system: MOLT-4
PC-3 = system: PC-3
U-251 = system: U-251
HL-60 = system: HL-60

SMILES | GI50 (T47D) | GI50 (HT-29) | GI50 (OVCAR-4) | GI50 (M14) | GI50 (HOP-62) | GI50 (SK-MEL-2) | GI50 (UACC-257) | GI50 (IGROV-1) | GI50 (SK-MEL-28) | GI50 (OVCAR-5) | GI50 (EKVX) | GI50 (UO-31) | GI50 (SF-539) | GI50 (SR) | GI50 (SN12C) | GI50 (SNB-19) | GI50 (MOLT-4) | GI50 (PC-3) | GI50 (U-251) | GI50 (HL-60)
CCOc1ccc(N/C(Cl)=C(Cl)\C(=C(\Nc2ccc(OCC)cc2)n2nnc3ccccc32)[N+](=O)[O-])cc1 | 4.47 µM (inactive) | 1.75 µM (inactive) | 10.3 µM (inactive) | 4.75 µM (inactive) | 33.1 µM (inactive) | 16.7 µM (inactive) | 8.3 µM (inactive) | 1.79 µM (inactive) | 7.83 µM (inactive) | 9.44 µM (inactive) | 12.2 µM (inactive) | 4.45 µM (inactive) | 4.2 µM (inactive) | 1.45 µM (inactive) | 7.94 µM (inactive) | 17.4 µM (inactive) | 2.85 µM (inactive) | 7.4 µM (inactive) | 6.78 µM (inactive) | –
Cn1c(=O)c2c(nc(NCCNc3nc4c(c(=O)n(C)c(=O)n4C)n3C)n2C)n(C)c1=O | > 100 µM (inactive) | > 100 µM (inactive) | > 100 µM (inactive) | > 100 µM (inactive) | > 100 µM (inactive) | > 100 µM (inactive) | > 100 µM (inactive) | > 100 µM (inactive) | > 100 µM (inactive) | > 100 µM (inactive) | > 100 µM (inactive) | > 100 µM (inactive) | – | > 100 µM (inactive) | > 100 µM (inactive) | > 100 µM (inactive) | > 100 µM (inactive) | > 100 µM (inactive) | > 100 µM (inactive) | –
Cn1c(=O)c2nc3nnc(C#N)c(N)n3c2n(C)c1=O | 33 µM (inactive) | > 100 µM (inactive) | > 100 µM (inactive) | > 100 µM (inactive) | > 100 µM (inactive) | > 100 µM (inactive) | – | 87.3 µM (inactive) | > 100 µM (inactive) | > 100 µM (inactive) | > 100 µM (inactive) | 50.6 µM (inactive) | 90.2 µM (inactive) | > 100 µM (inactive) | > 100 µM (inactive) | – | > 100 µM (inactive) | > 100 µM (inactive) | > 100 µM (inactive) | > 100 µM (inactive)
CC(=O)N1c2ccccc2C2=NN(C)C(=N)SC21 (stereo not drawn) | 29.9 µM (inactive) | > 100 µM (inactive) | > 100 µM (inactive) | > 100 µM (inactive) | > 100 µM (inactive) | > 100 µM (inactive) | > 100 µM (inactive) | – | > 100 µM (inactive) | > 100 µM (inactive) | > 100 µM (inactive) | 28 µM (inactive) | > 100 µM (inactive) | > 100 µM (inactive) | > 100 µM (inactive) | > 100 µM (inactive) | > 100 µM (inactive) | > 100 µM (inactive) | > 100 µM (inactive) | 89.5 µM (inactive)
CCCCCCc1cc2cc(C(=O)Nc3cccc(F)c3)c(=N)oc2cc1O | 2.04 µM (inactive) | 17.9 µM (inactive) | 2.78 µM (inactive) | 3.15 µM (inactive) | 4.57 µM (inactive) | 2.16 µM (inactive) | 2.99 µM (inactive) | 1.42 µM (inactive) | 2.67 µM (inactive) | 3.6 µM (inactive) | 2.34 µM (inactive) | 2.73 µM (inactive) | 3.26 µM (inactive) | 2.17 µM (inactive) | – | 3.55 µM (inactive) | 1.95 µM (inactive) | 3.21 µM (inactive) | 1.97 µM (inactive) | 2.36 µM (inactive)
CC(=O)OC1CCC2(C)C(CCC3C2CC(=O)C2(C)C3CC(N3CC3)C2C(C)=O)C1 (stereo not drawn) | 18.7 µM (inactive) | 22.6 µM (inactive) | 19.8 µM (inactive) | 20.2 µM (inactive) | 24.5 µM (inactive) | 17.5 µM (inactive) | 17.3 µM (inactive) | 13.6 µM (inactive) | 30.7 µM (inactive) | 37.4 µM (inactive) | 18.4 µM (inactive) | 18 µM (inactive) | 11.8 µM (inactive) | 1.78 µM (inactive) | 21.9 µM (inactive) | 20.9 µM (inactive) | 2.11 µM (inactive) | 14.1 µM (inactive) | 17.2 µM (inactive) | –
Cc1nn(C(=O)c2ccccc2O)c2c1C(c1ccc3ccccc3c1O)SC(=N)N2 (stereo not drawn) | 1.87 µM (inactive) | 9.55 µM (inactive) | 5.13 µM (inactive) | 6.21 µM (inactive) | 4.26 µM (inactive) | 4.39 µM (inactive) | 3.53 µM (inactive) | 3.61 µM (inactive) | 5.16 µM (inactive) | 7.19 µM (inactive) | 9.79 µM (inactive) | 4.2 µM (inactive) | 4.53 µM (inactive) | 4.53 µM (inactive) | 6.58 µM (inactive) | 8.61 µM (inactive) | 2.98 µM (inactive) | 3.66 µM (inactive) | 3.66 µM (inactive) | –
CCNc1nnc(-c2ccccc2Nc2ccccc2-c2nnc(NCC)s2)s1 | 5.32 µM (inactive) | 10.9 µM (inactive) | 27.5 µM (inactive) | 14.5 µM (inactive) | 22.2 µM (inactive) | 9.77 µM (inactive) | 23.6 µM (inactive) | 6.18 µM (inactive) | 18.4 µM (inactive) | 18.2 µM (inactive) | 20.9 µM (inactive) | 4.71 µM (inactive) | – | 47.8 µM (inactive) | 18.9 µM (inactive) | 27.4 µM (inactive) | 4.35 µM (inactive) | 17 µM (inactive) | 11.4 µM (inactive) | –
O=C1CN(/N=C/c2ccc(-c3ccc(F)cc3)o2)C(=O)N1 | > 100 µM (inactive) | – | – | 75.3 µM (inactive) | > 100 µM (inactive) | 34.6 µM (inactive) | 21.8 µM (inactive) | 41.6 µM (inactive) | 25.4 µM (inactive) | > 100 µM (inactive) | > 100 µM (inactive) | 75.2 µM (inactive) | 34.4 µM (inactive) | 24 µM (inactive) | 91.2 µM (inactive) | 83.9 µM (inactive) | 91.4 µM (inactive) | > 100 µM (inactive) | 89.3 µM (inactive) | 55.6 µM (inactive)
Cc1cn(C2OC(CO[Si](C)(C)C(C)(C)C)/C(=C\C#N)C2O[Si](C)(C)C(C)(C)C)c(=O)[nH]c1=O (stereo not drawn) | 5.3 µM (inactive) | 40.7 µM (inactive) | 58.3 µM (inactive) | > 100 µM (inactive) | 63.7 µM (inactive) | 8.73 µM (inactive) | 63.5 µM (inactive) | – | > 100 µM (inactive) | > 100 µM (inactive) | – | > 100 µM (inactive) | 6.75 µM (inactive) | > 100 µM (inactive) | 64.6 µM (inactive) | > 100 µM (inactive) | > 100 µM (inactive) | 3.83 µM (inactive) | 38.4 µM (inactive) | –
Cc1cc(Cc2cc(C)c(NC(=O)C(=O)C3CCC4=C(SC5C=CC=CC5N4)C3=O)c(C(C)C)c2)cc(C(C)C)c1NC(=O)C(=O)C1CCC2=C(SC3C=CC=CC3N2)C1=O (stereo not drawn) | 29.2 µM (inactive) | 58.6 µM (inactive) | 33.7 µM (inactive) | > 100 µM (inactive) | 94.4 µM (inactive) | 45.5 µM (inactive) | > 100 µM (inactive) | 34 µM (inactive) | > 100 µM (inactive) | > 100 µM (inactive) | 52.7 µM (inactive) | 41.3 µM (inactive) | 12.5 µM (inactive) | 60.8 µM (inactive) | 84.1 µM (inactive) | – | 32.2 µM (inactive) | 25.1 µM (inactive) | 50.1 µM (inactive) | 40.6 µM (inactive)
COC1OC(COC(=O)NCCCCC(=O)C(F)(F)F)C(O)C(O)C1O (stereo not drawn) | > 100 µM (inactive) | > 100 µM (inactive) | > 100 µM (inactive) | > 100 µM (inactive) | > 100 µM (inactive) | > 100 µM (inactive) | > 100 µM (inactive) | > 100 µM (inactive) | > 100 µM (inactive) | > 100 µM (inactive) | – | > 100 µM (inactive) | > 100 µM (inactive) | > 100 µM (inactive) | > 100 µM (inactive) | > 100 µM (inactive) | > 100 µM (inactive) | > 100 µM (inactive) | > 100 µM (inactive) | > 100 µM (inactive)
COC1(OC)CCCCCCCCC(OC)(OC)CCCCCCCC1 | > 100 µM (inactive) | > 100 µM (inactive) | – | > 100 µM (inactive) | > 100 µM (inactive) | > 100 µM (inactive) | > 100 µM (inactive) | > 100 µM (inactive) | > 100 µM (inactive) | > 100 µM (inactive) | > 100 µM (inactive) | 0.553 µM (active) | > 100 µM (inactive) | > 100 µM (inactive) | > 100 µM (inactive) | > 100 µM (inactive) | – | > 100 µM (inactive) | > 100 µM (inactive) | > 100 µM (inactive)
Cc1ccc(C2SC(=N)Nc3c2c(C)nn3C(=O)c2ccccc2O)cc1 (stereo not drawn) | > 10 µM (inactive) | > 10 µM (inactive) | > 10 µM (inactive) | > 10 µM (inactive) | > 10 µM (inactive) | 6.31 µM (inactive) | > 10 µM (inactive) | 2.81 µM (inactive) | > 10 µM (inactive) | > 10 µM (inactive) | > 10 µM (inactive) | 6.87 µM (inactive) | 5.68 µM (inactive) | > 10 µM (inactive) | > 10 µM (inactive) | > 10 µM (inactive) | 7.43 µM (inactive) | > 10 µM (inactive) | 5.38 µM (inactive) | –
O=S(=O)(O)c1cccc2cccc(/N=N/c3c(O)ccc4ccccc34)c12 | > 100 µM (inactive) | > 100 µM (inactive) | > 100 µM (inactive) | > 100 µM (inactive) | > 100 µM (inactive) | > 100 µM (inactive) | > 100 µM (inactive) | 31.9 µM (inactive) | – | > 100 µM (inactive) | 92.3 µM (inactive) | > 100 µM (inactive) | > 100 µM (inactive) | > 100 µM (inactive) | > 100 µM (inactive) | > 100 µM (inactive) | > 100 µM (inactive) | > 100 µM (inactive) | > 100 µM (inactive) | > 100 µM (inactive)
